Reference: ChEMBL document CHEMBL3507680, “University of Dundee, Gates Library screen for HepG2 cell viability”

Test: Human HepG2 cell viability assay in 384 well format
Format: toxicity, cell-based
Design: dose 125 nL, time 70.5 hour; concentration not given beside the values
Details: HepG2 cells, read-out: Inhibition

Row | SMILES | cytotoxicity at 70.5 h
1 | CC(=O)N(C)CC(=O)Nc1cnc(-n2ccnc2)nc1 | 0.242%
2 | COc1ccc(NC(=O)Nc2cnc(N3CCN(C)CC3)nc2)cc1Cl | -0.129%
3 | Cc1ccc(NC(=O)Nc2cnc(N3CCN(C)CC3)nc2)cc1 | 27.1%
4 | O=S(=O)(Nc1cnc(N2CCCC2)nc1)c1ccc(F)cc1F | -6.31%
5 | Cc1ccc(F)cc1S(=O)(=O)Nc1cnc(N2CCCC2)nc1 | -9.37%
6 | O=C(C[C@H]1[C@H]2CN(C(=O)c3cccnc3)C[C@@H]12)Nc1cccnc1 | -1.44%
7 | CCCN1CCC2(Cc3ccccc3NC2=O)C1 (centres undefined) | -0.983%
8 | CCOCC(=O)N1CC[C@H]2OCC[C@@H](c3nnc(C)o3)[C@H]2C1 | 0.355%
9 | Fc1cnc(N2CCOCC3(CCCNC3)C2)nc1 (centres undefined) | 12.2%
10 | CC(C)C(=O)N1CCCC2(CCCN2Cc2cccnc2)C1 (centres undefined) | 1.65%
11 | Cc1cnc(N2CCC3(CC2)CC(NS(C)(=O)=O)CO3)nc1 (centres undefined) | 1.23%
12 | CC(=O)N1CCO[C@@H]2CN(C(=O)c3ccc4ccccc4c3)CC[C@@H]2C1 | -2.64%
13 | O=C(c1cc2c(s1)CCN2C(=O)C1CC1)N1CCCC1 | -4.7%
14 | Cn1c(C(=O)NC2CCCC2)nc2c1CCN(Cc1ccccc1)C2 | -5.5%
15 | Cc1cnc(N2CCC3(CC2)CC3CNC(=O)N(C)C)nc1 (centres undefined) | -6.55%
16 | COCCC1COC2(CCN(C(=O)C3CCC3)CC2)C1 (centres undefined) | -3.7%
17 | Cc1nnc([C@@H]2CC[C@@H]3[C@@H](CCN3C3CCC3)O2)o1 | -4.45%
18 | Fc1cnc(N2CCOCC3(CCCN(c4cnccn4)C3)C2)nc1 (centres undefined) | -3.83%
19 | CN1CCN(C(=O)c2cc3c(s2)CCN3C(=O)C2CC2)CC1 | -1.1%
20 | O=C(N1CCOCC1)N1CC[C@H]2[C@@H]1CCC(=O)N2c1ccccc1 | -1.24%
21 | O=C(c1cnccn1)N1CCCC2(CCCN2Cc2cccnc2)C1 (centres undefined) | -1.76%
22 | O=C(c1ccc[nH]1)N1CCCC2(CCCN2Cc2cccnc2)C1 (centres undefined) | 11.9%

Row | SMILES | cytotoxicity at 70.5 h
23 | O=C(C1CC1)N1CC[C@H]2[C@@H]1CCC(=O)N2c1ccccc1 | -2.42%
24 | CCS(=O)(=O)NCC1OCCc2cn(CCOC)nc21 (centres undefined) | -3.26%
25 | COC[C@H]1CC[C@H]2[C@H](CCN2S(=O)(=O)Cc2ccccc2)O1 | -4.05%
26 | Cc1cc(C(=O)N2CCCC3(CCCN3Cc3cccnc3)C2)[nH]n1 (centres undefined) | 12.8%
27 | CS(=O)(=O)N1CCC2(CC1)CC(OCC1CCOCC1)CO2 (centres undefined) | -7.58%
28 | Cc1ccccc1C(=O)N1CCCn2nnc(Cn3cccn3)c2C1 | -9.23%
29 | CCS(=O)(=O)N1CC[C@H]2OCC[C@@]2(c2nnc(C)o2)C1 | -7.55%
30 | COCC1CN(CC2CCOCC2)Cc2cn(CC3CCCC3)nc21 (centres undefined) | -7.67%
31 | O=C(c1ccc[nH]1)N1CCOC2(COCCN(c3cncnc3)C2)C1 (centres undefined) | -7.73%
32 | COCC1CN(Cc2ccoc2)Cc2cn(C)nc21 (centres undefined) | -7.39%
33 | Cc1noc(C2CN(S(C)(=O)=O)Cc3ccnn3C2)n1 (centres undefined) | -7.77%
34 | Cc1noc(C)c1CN1C[C@@H](OCC(=O)N(C)C)[C@H]2OCCC[C@H]21 | -9.4%
35 | O=S(=O)(C1CC1)N1CC[C@]2(C[C@H](OCC3CCOCC3)CO2)C1 | -9.21%
36 | CCCS(=O)(=O)N1CC[C@H]2OCC[C@@]2(c2nnc(C)o2)C1 | 8.91%
37 | Cc1nnc([C@@]23CCO[C@@H]2CCN(S(C)(=O)=O)C3)o1 | -0.978%
38 | Cc1noc(C2CN(S(=O)(=O)C3CC3)Cc3ccnn3C2)n1 (centres undefined) | 10.2%
39 | CN(C)C(=O)c1n[nH]c2c1CCN(Cc1nccs1)C2 | -4.93%
40 | CS(=O)(=O)N1CCCC12CCCN(C(=O)c1ccncc1)C2 (centres undefined) | -7.69%
41 | Cc1ccc(C)c(Oc2cc(-n3nc(C)c(C#N)c3N)nc(C)n2)c1 | -6.07%
42 | O=C(Cn1nc(Br)nc1Br)N1CCOCC1 | 27.3%
43 | O=c1[nH]cnc2[nH]c(N3CCOCC3)nc12 | 26.5%
44 | COc1ccc(C2SCC(=O)N2c2ncc(C)s2)cc1 (centres undefined) | -1.35%

Row | SMILES | cytotoxicity at 70.5 h
45 | Cc1cnc(N2C(=O)CSC2c2cccs2)s1 (centres undefined) | 28.2%
46 | CC(C)Sc1nnc(CCNC(=O)OC(C)(C)C)o1 | 26.1%
47 | COc1ccc2c(ccn2CCN)c1 | 5.97%
48 | CC(C)CN1C(=O)c2ccc(C(=O)NCCc3c[nH]cn3)cc2C1=O | -0.52%
49 | Cc1ccc2c(ccn2CCC(=O)NC[C@@H]2CCCN3CCCC[C@H]23)c1 | 1.22%
50 | COc1ccc(C2CC(=O)Oc3cc(C)[nH]c(=O)c32)cc1 (centres undefined) | -2.66%
51 | COC(=O)CC(c1ccc(OC)c(OC)c1)c1oc(C)cc(=O)c1O (centres undefined) | 5.4%
52 | O=C(CNC(=O)N1CCc2c([nH]c3ccc(Cl)cc23)C1)N1CCOCC1 | 37.5%
53 | COC(=O)COc1nc(CC(C)C)c2c(c1C#N)CCCC2 | 7.01%
54 | O=C(NCCN1CCCCC1)c1nc2ccccc2c(=O)[nH]1 | 4.35%
55 | O=C(NCCN1CCNCC1)c1nc2ccccc2c(=O)[nH]1 | -2.57%
56 | NC(=O)c1nc(COc2ccc3c(c2)OCO3)no1 | -12.9%
57 | CC(C)[C@H](NC(=O)NC1CCS(=O)(=O)C1)C(=O)NCc1cccnc1 (some centres undefined) | 6.1%
58 | O=C(c1nc(COc2ccc3c(c2)OCO3)no1)N1CCCC1 | -3.83%
59 | CC(C)[C@H](NC(=O)NC1CCS(=O)(=O)C1)C(=O)NCc1ccccc1Cl (some centres undefined) | 0.909%
60 | O=C(Cn1ccc2c(Cl)cccc21)N[C@@H](C(=O)O)c1ccccc1 | 0.804%
61 | COc1ccc(NC(=O)Cn2nc(C)ccc2=O)cc1OC | 0.232%
62 | COCCn1ccc(=O)c(OCC(=O)Nc2ccccc2)c1C | -10.1%
63 | COCCn1ccc(=O)c(OCC(=O)Nc2cccc(C(C)=O)c2)c1C | -4.4%
64 | CC1=Nc2c(c(=O)[nH]n2C(C)C)C(c2ccc(F)c(F)c2)S1 (centres undefined) | -4.57%
65 | CC(C)n1ncc2c1NC(=O)CC21C(=O)Nc2c(Cl)cccc21 (centres undefined) | -5.46%
66 | O=c1cc2c(nn1CN1CCN(c3ccccc3)CC1)CCC2 | -4.25%

Row | SMILES | cytotoxicity at 70.5 h
67 | O=c1cc2c(nn1CN1CCOCC1)CCC2 | -3.75%
68 | Cc1cc(C)c2c(c1)C1(CC(=O)Nc3c1cnn3C(C)C)C(=O)N2 (centres undefined) | -5.35%
69 | CC(C)CC1SCC(=O)Nc2c1cnn2C(C)C (centres undefined) | -9.09%
70 | O=C(CCc1nc2cccnc2[nH]1)NCc1cccnc1 | 0.275%
71 | CC(C)NC(=O)[C@@H](NC(=O)N1CCN(c2ccc(Cl)cc2)CC1)C(C)C | 6.91%
72 | O=C(NCCCO)C1CC(=O)N(c2n[nH]c3cccc(F)c23)C1 (centres undefined) | 1.35%
73 | COc1cc(C2CC(=O)Oc3cc(C)[nH]c(=O)c32)ccc1OC(F)F (centres undefined) | 10.5%
74 | O=C(NCCN1CCOCC1)c1cc(-c2ccc3c(c2)CCO3)n[nH]1 | 2%
75 | CC1(C)OCC(CNC(=O)c2cnn(-c3ccc(Cl)cc3)c2N)O1 (centres undefined) | 7.47%
76 | COc1ccc(-n2ncc(C(=O)NCC3COC(C)(C)O3)c2N)cc1 (centres undefined) | -5.98%
77 | CC(=O)N1N=C(c2ccccc2)OC1C(=O)NCCC1=CCCCC1 (centres undefined) | -0.565%
78 | COCCNC(=O)c1cn(C(C)(C)C)c2ncccc12 | -5.71%
79 | COCC(C)NC(=O)c1cn(C(C)(C)C)c2ncccc12 (centres undefined) | -6.59%
80 | COc1ccc(NC(=O)N2CCCC2c2ccco2)cc1OC (centres undefined) | -0.202%
81 | Cc1ccc(C)c(C(NC(=O)C2CC2)c2cccnc2)c1 (centres undefined) | -1.23%
82 | COc1ccc(C2=C(C)C(N3CCc4ccccc43)=NS2(=O)=O)cc1 | -12.7%
83 | CNC(=O)C1CCC2(CCN(c3nncs3)CC2)CO1 (centres undefined) | -2.99%
84 | CC(C)CN1CCCC2(CCN(c3ccccn3)C2)C1 (centres undefined) | 8.64%
85 | Cn1cc(CN2CC[C@H]3O[C@H](C(=O)NC4CC4)CC[C@H]32)c2ccccc21 | -3.36%
86 | CC(=O)N1CCO[C@@H]2CN(C(=O)c3ccc4ncccc4c3)CC[C@@H]2C1 | -3.03%
87 | O=S(=O)(C1CC1)N1CC[C@@H](OCC2CC2)[C@@H]1Cc1ccncc1 | -4.77%
88 | Cc1cnc(N2CCC3(CC2)CC3CNC(=O)C2CCC2)nc1 (centres undefined) | -1.64%

Row | SMILES | cytotoxicity at 70.5 h
89 | CN(C)C[C@H]1OC[C@@H]2CCN(C(=O)c3ccc[nH]3)C[C@@H]21 | -4.7%
90 | CN1C[C@@H]2COC[C@]2(C(=O)NCCc2cccs2)C1 | -5.55%
91 | CCCS(=O)(=O)N1Cc2ccnn2CC(c2nc(C)no2)C1 (centres undefined) | -4.93%
92 | COc1ccc(N2CCCC3(C2)CN(c2cccnc2)CCO3)cc1 (centres undefined) | -9.47%
93 | Cc1ccc(Nc2ncnc3c2CCN(CC2CCOC2)CC3)cc1 (centres undefined) | -7.38%
94 | c1cnc(N2CCO[C@H]3CN(Cc4csnn4)C[C@H]32)cn1 | -11.1%
95 | Cn1cc(CN2CCC3(CCC(C(=O)NCC4CC4)C3)CC2)cn1 (centres undefined) | -9.54%
96 | Cc1ccsc1C(=O)N1CC[C@H]2CO[C@H](CN(C)C)[C@H]2C1 | -6.98%
97 | O=C(c1ccncc1)N1CCOC2(COCCN(c3cncnc3)C2)C1 (centres undefined) | -11.1%
98 | CS(=O)(=O)N1CCC2(CC1)COC(COc1cccnc1)C2 (centres undefined) | -8.18%
99 | CC(C)CCN1CCC2(CCCN(c3nncs3)C2)C1 (centres undefined) | -5.61%
100 | Cc1nc(C)n(CC2CN(Cc3nccs3)Cc3nccn3C2)n1 (centres undefined) | -2.68%
101 | CCOCC(=O)N1CC[C@H]2OCC[C@@]2(COc2ncccc2F)C1 | -12%
102 | O=C(c1ccncc1)N1CCC2(CC1)C(=O)Nc1ccccc12 | -10.1%
103 | O=C(C[C@H]1[C@H]2CN(c3ncccn3)C[C@@H]12)Nc1cccnc1 | 4.76%
104 | c1cnc(N2CC[C@@H]3O[C@@H](COCc4cccnc4)CC[C@@H]32)nc1 | -0.916%
105 | O=C(c1ccncc1)N1CCOC2(COCCN(c3cccnc3)C2)C1 (centres undefined) | -8.51%
106 | c1cnc(N2CCOC3(CCCN(c4cnccn4)C3)C2)nc1 (centres undefined) | -8.79%
107 | CN(Cc1ccncc1)C1CC2(CCN(c3ncccn3)CC2)C1 | -3.37%
108 | CN(C)C[C@]12COC[C@H]1CN(Cc1ccccn1)C2 | -8.89%
109 | c1cncc(COCC2CN(Cc3cccnc3)Cc3ccnn3C2)c1 (centres undefined) | -9.95%
